Data as given in ChEMBL document CHEMBL1134452, “Novel inhibitors of mitochondrial respiratory chain: endoperoxides from the marine tunicate Stolonica socialis” (J Med Chem, 2001).

Experiment: Compound was tested for inhibitory activity on mitochondrial electron transport using submitochondrial particles (SMP) from beef heart.
Format: functional, Bos taurus

Row | SMILES | IC50 [nM]
1 | C=CCC/C=C/C=C/CCCCCC[C@H]1CC[C@H]([C@@H]2CC[C@@H](CC(=O)OC)OO2)O1 | < 1000
2 | C=CCC/C=C/C=C/CCCCCC[C@@H]1CC[C@@H]([C@@H]2CC[C@@H](CC(=O)OC)OO2)O1 | < 1000
